Test results as given in US20240174625A1, “COMPOSITIONS AND METHODS FOR TREATING TAUOPATHIES” (The Regents of the University of California, priority 2021, published 2024).

How the values were obtained:
NPEPPS = molecular target: T1, NPEPPS (Homo sapiens, UniProt P55786); test: Cell-based NPEPPS activity assay (Q-AMC fluorescence); conditions: for EC50: log10 transformed, EC50 = concentration that elevates 50% NPEPPS activity (150% of DMSO baseline), HEK293T cells; for fluorescence change (NPEPPS activity): Q-AMC assay, inhibitors, FIG. 2D
T1 construct: endogenous in cells; host or cells: HEK293T
Protocol: HEK293T cells (AATC) were maintained in a complete media containing DMEM (Gibco 11995-065) in the presence of 10% fetal bovine serum (FBS, Gibco 10082147), […] penicillin and 50 μg/ml streptomycin (Gibco 15140163) at 37° C. with 5% CO2. NPEPPS activity assay was conducted in a fresh-prepared minimal medium containing essential amino acids, vitamin, AlbuMax (Invitrogen 11021-029) in 1×HBS buffer. Black wall, clear bottom 384-well assay plates (Greiner EK-30092) were coated with poly-L-ornithine (0.1 mg/ml, Sigma P3655) overnight and washed once with 1×PBS. 15 μl minimal medium was then added to each well. 250 nL of compounds dissolved in OmniSolve methylsulfoxide (dimethyl sulfoxide, DMSO, Sigma MX1456P) were pinned to each well via Biomek FX^P Liquid Handling Automation (Beckman Coulter) from compound source plates, i.e., either pre-made compound libraries or JMM compounds (20-step, 2-fold dilution) dissolved in OmniSolve DMSO prepared via Biomek automation in 384-well clear V-bottom polypropylene microplates (ThermoScientific 50-823-639). Cells were harvested, resuspended in minimal medium, and seeded at 16,500 cells/15 μl/well in the 384-well assay plates. 24 hrs later, 30 μl 200 μM H-Gln-AMC hydrobromide salt (Q-AMC, Bachem #I-1175) in 1×HBS containing 0.1% DMSO was added into each well. The fluorescent signal at excitation/emission wavelengths of 360/460 nm was measured immediately upon Q-AMC addition and 3 hrs post-Q-AMC. The change in fluorescence is measured as a readout of NPEPPS activity.
To identify small molecules that either increase NPEPPS levels or NPEPPS activity, a cell-based NPEPPS activity assay amenable to high-throughput screening (HTS) by adapting a fluorescent peptidase activity assay^2 was developed. Since NPEPPS is one of the only aminopeptidases capable of cleaving glutamine-peptide bonds^3 and the major aminopeptidase responsible for degradation of poly-glutamine sequences in the brain^4, a fluorogenic compound, glutamine-7-amino-4-methylcoumarin (Q-AMC), was selected as a substrate to measure NPEPPS activity. The peptide bond of Q-AMC is hydrolyzed by NPEPPS to release glutamine and a fluorescent product, 7-amino-4-methylcoumarin (AMC), when Q-AMC is added directly to the cell culture media. This change in fluorescence is measured as a readout of aminopeptidase activity (FIG. 2A). Overexpression of NPEPPS in HEK293T cells results in a significant increase in fluorescence, whereas knock-down or chemical inhibition of NPEPPS decrease fluorescence change (FIG. 2B-D), validating that the changes in fluorescence observed in the Q-AMC-based assay directly correlate with changes in NPEPPS activity. A high-throughput (HTS) screen (201,845 compounds) was conducted at the UCLA MSSR core (FIG. 2E). Follow-up assays and chemical clustering identified three series of compounds with distinct chemical clusters (FIG. 2F).
(§1) To investigate the effects of JMM compounds that enhance NPEPPS activity and assess their cellular toxicity, 139 compounds in the JMM series (i.e., JMM001-JMM139) were tested in dose responses (20-step, 2-fold dilution) using NPEPPS activity and viability assays in HEK293T cells. 76 compounds harboring different modifications produce concentration-dependent enhancement on NPEPPS activity compared to DMSO control (FIG. 4). […] A therapeutic index (TI, a ratio of IC50 over EC50) is used to evaluate the relative safety profiles of the compounds. […] 16 JMM compounds show both improved potency and reduced toxicity (EC50<10 μM and TI>10, Table 1).

HEK293T cells = test: Cell viability assay (CellTiter Glo); assay type: cell-based, human; conditions: for IC50: Homo sapiens, HEK-293T, log10 transformed, IC50 = concentration that suppresses 50% cell viability, HEK293T cells; for Therapeutic index: ratio of IC50 (cell viability) over EC50 (NPEPPS activity)
Protocol: HEK293T cells (AATC) were maintained in complete media and cell viability assay was conducted in a fresh-prepared minimal medium containing essential amino acids, vitamin, AlbuMax (Invitrogen 11021-029) in 1×HBS buffer. White 384-well assay plates (Greiner EK-30080) were coated with poly-L-ornithine (0.1 mg/ml) overnight and washed once with 1×PBS. 15 μl minimal medium was then added to each well. 250 nl of compounds dissolved in OmniSolve DMSO were pinned to each well via Biomek FX^P Liquid Handling Automation from compound source plates. Cells were harvested, resuspended in minimal medium, and seeded at 16,500 cells/15 μl/well in the 384-well assay plates. 24 hrs later, 25 μl/well CellTiter Glo reagent (Promega G7572) was added into each well, and luminescence (0.5 second integration time) was acquired following manufacture's protocol. Luminescence count normalized to DMSO control is used as a readout of cell viability.
as §1

T1 sequence (P55786 whole entry): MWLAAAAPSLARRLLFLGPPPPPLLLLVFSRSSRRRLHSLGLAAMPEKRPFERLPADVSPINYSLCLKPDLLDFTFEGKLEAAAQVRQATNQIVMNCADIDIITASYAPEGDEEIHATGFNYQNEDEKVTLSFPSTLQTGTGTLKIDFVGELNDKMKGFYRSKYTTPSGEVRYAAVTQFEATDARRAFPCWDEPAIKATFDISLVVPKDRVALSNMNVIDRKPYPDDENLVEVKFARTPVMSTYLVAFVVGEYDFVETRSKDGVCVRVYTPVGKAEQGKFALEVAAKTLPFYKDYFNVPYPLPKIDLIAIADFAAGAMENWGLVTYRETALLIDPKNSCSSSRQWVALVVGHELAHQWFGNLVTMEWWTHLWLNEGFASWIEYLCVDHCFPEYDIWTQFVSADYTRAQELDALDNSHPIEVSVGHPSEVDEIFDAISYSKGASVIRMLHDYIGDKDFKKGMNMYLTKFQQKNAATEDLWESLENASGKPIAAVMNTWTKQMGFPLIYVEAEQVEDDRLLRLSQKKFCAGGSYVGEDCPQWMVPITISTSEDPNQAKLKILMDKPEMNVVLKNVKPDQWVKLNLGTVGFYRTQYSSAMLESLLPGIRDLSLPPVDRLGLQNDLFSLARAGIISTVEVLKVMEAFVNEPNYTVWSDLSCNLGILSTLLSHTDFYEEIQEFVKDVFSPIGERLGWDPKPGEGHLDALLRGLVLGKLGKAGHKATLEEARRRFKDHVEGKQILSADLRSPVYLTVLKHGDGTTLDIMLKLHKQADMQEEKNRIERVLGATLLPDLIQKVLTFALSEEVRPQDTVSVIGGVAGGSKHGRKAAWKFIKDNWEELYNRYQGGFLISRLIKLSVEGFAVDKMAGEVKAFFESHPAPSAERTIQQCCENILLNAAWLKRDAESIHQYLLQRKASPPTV

For `FC(F)(F)c1ccc(CNc2nccc3ccccc23)cc1` [JMM037], the EC50 (NPEPPS) was 112 µM, the IC50 (HEK293T cells) was 95.5 µM and the Therapeutic index (HEK293T cells) was 0.84.

`c1ccc2c(c1)CN(c1nsc3ccccc13)C2` [JMM087] was tested, and the IC50 (HEK293T cells) was 229 µM.

`c1ccc(COc2ccc3snc(NCc4ccc(OCC5CC5)cc4)c3c2)cc1` [JMM135, 5-(Benzyloxy)-N-(4-(cyclopropylmethoxy)benzyl)benzo[d]isothiazol-3-amine] gave an EC50 (NPEPPS) of 4.17 µM, an IC50 (HEK293T cells) of 6.46 µM and a Therapeutic index (HEK293T cells) of 1.54.

`CN(Cc1ccc(OCc2ccccc2)cc1)c1nsc2ccc(OCc3ccccc3)cc12` [JMM088] was tested, and the EC50 (NPEPPS) was 0.977 µM, the IC50 (HEK293T cells) was 97.7 µM and the Therapeutic index (HEK293T cells) was 100.53.

For `FC(F)(F)c1ccc(CNc2nsc3cccnc23)cc1` [JMM060], the EC50 (NPEPPS) was 53.7 µM, the IC50 (HEK293T cells) was 102 µM and the Therapeutic index (HEK293T cells) was 1.88.

For `CCN(Cc1ccc(C(F)(F)F)cc1)c1nsc2ccccc12` [JMM092], the EC50 (NPEPPS) was 44.7 µM, the IC50 (HEK293T cells) was 126 µM and the Therapeutic index (HEK293T cells) was 2.84.

Compound `Fc1ccc(NCc2ccc(C(F)(F)F)cc2)nc1` [JMM045] has an EC50 (NPEPPS) of 53.7 µM, an IC50 (HEK293T cells) of 186 µM and a Therapeutic index (HEK293T cells) of 3.49.

`CN(Cc1ccccc1)c1ccc(CNc2nsc3ccc(OCc4ccccc4)cc23)cc1` [JMM125, N-(4-(Benzyl(methyl)amino)benzyl)-5-(benzyloxy)benzo[d]isothiazol-3-amine] was tested, and the EC50 (NPEPPS) was 40.7 µM, the IC50 (HEK293T cells) was 603 µM and the Therapeutic index (HEK293T cells) was 14.75.

Work on `COc1ccc(CNc2ccc(F)cn2)cc1OC` [JMM046] yielded an EC50 (NPEPPS) of 214 µM, an IC50 (HEK293T cells) of 479 µM and a Therapeutic index (HEK293T cells) of 2.24.

For `FC(F)(F)c1ccc(CNc2nsc3c(Br)cccc23)cc1` [JMM028], the EC50 (NPEPPS) was 28.8 µM, the IC50 (HEK293T cells) was 33.9 µM and the Therapeutic index (HEK293T cells) was 1.19.

For `O=C(Nc1nsc2ccccc12)c1ccc2c(c1)OCCO2` [JMM006], the IC50 (HEK293T cells) was 282 µM.

For `c1ccc2c(CNc3nsc4ccccc34)c3ccccc3cc2c1` [JMM018], the IC50 (HEK293T cells) was 9550 µM.

In the case of `COc1ccc(CN(C)c2nsc3ccc(OCc4ccccc4)cc23)cc1` [JMM107, 5-(Benzyloxy)-N-(4-methoxybenzyl)-N-methylbenzo[d]isothiazol-3-amine], the EC50 (NPEPPS) is reported as 85.1 µM, the IC50 (HEK293T cells) is reported as 87.1 µM and the Therapeutic index (HEK293T cells) is reported as 1.04.

For `FC(F)(F)c1ccc(CNc2ncccn2)cc1` [JMM049], the EC50 (NPEPPS) was 56.2 µM, the IC50 (HEK293T cells) was 162 µM and the Therapeutic index (HEK293T cells) was 2.93.

Work on `COc1ccc(Nc2nsc3ccccc23)cc1OC` [JMM025] yielded an EC50 (NPEPPS) of 372 µM, an IC50 (HEK293T cells) of 575 µM and a Therapeutic index (HEK293T cells) of 1.54.

`COc1ccc(C(=O)Nc2nsc3ccccc23)cc1OC` [JMM002] was tested, and the EC50 (NPEPPS) was 1020 µM, the IC50 (HEK293T cells) was 1410 µM and the Therapeutic index (HEK293T cells) was 1.36.

`FC(F)c1ccc(CNc2nsc3ccccc23)cc1` [JMM063] gave an EC50 (NPEPPS) of 148 µM, an IC50 (HEK293T cells) of 195 µM and a Therapeutic index (HEK293T cells) of 1.33.

Compound `CS(=O)(=O)N(Cc1ccc(C(F)(F)F)cc1)c1nsc2ccccc12` [JMM071] has an IC50 (HEK293T cells) of 10 µM.

In the case of `Fc1ccc2snc(NCc3ccc(OCc4ccccc4)cc3)c2c1` [JMM130, N-(4-(Benzyloxy)benzyl)-5-fluorobenzo[d]isothiazol-3-amine], the EC50 (NPEPPS) is reported as 63.1 µM, the IC50 (HEK293T cells) is reported as 224 µM and the Therapeutic index (HEK293T cells) is reported as 3.56.

`c1ccc(COc2ccc3snc(NCc4cccs4)c3c2)cc1` [JMM119, 5-(Benzyloxy)-N-(thiophen-2-ylmethyl)benzo[d]isothiazol-3-amine] showed an EC50 (NPEPPS) of 120 µM, an IC50 (HEK293T cells) of 501 µM and a Therapeutic index (HEK293T cells) of 4.20.

`FC(F)(F)c1ccc(COc2ccc(CNc3nsc4ccc(OCc5ccccc5)cc34)cc2)cc1` [JMM121, 5-(Benzyloxy)-N-(4-((4-(trifluoromethyl)benzyl)oxy)benzyl)benzo[d]isothiazol-3-amine] was tested, and the EC50 (NPEPPS) was 15.8 µM, the IC50 (HEK293T cells) was 295 µM and the Therapeutic index (HEK293T cells) was 18.30.

`O=C(Nc1nsc2ccccc12)c1ccc(C(F)(F)F)cc1` [JMM007] gave an IC50 (HEK293T cells) of 1740 µM.

Work on `CN(Cc1ccccc1C(F)(F)F)c1nsc2ccccc12` [JMM079] yielded an EC50 (NPEPPS) of 3.55 µM, an IC50 (HEK293T cells) of 69.2 µM and a Therapeutic index (HEK293T cells) of 19.15.

With `FC(F)(F)c1ccc(CNc2nsc3cnccc23)cc1` [JMM065] the EC50 (NPEPPS) was 22.4 µM, the IC50 (HEK293T cells) was 132 µM and the Therapeutic index (HEK293T cells) was 5.91.

`Clc1ccc(COc2ccc(CNc3nsc4ccc(OCc5ccccc5)cc34)cc2)cc1` [JMM112, 5-(Benzyloxy)-N-(4-((4-chlorobenzyl)oxy)benzyl)benzo[d]isothiazol-3-amine] was tested, and the EC50 (NPEPPS) was 5.5 µM, the IC50 (HEK293T cells) was 23.4 µM and the Therapeutic index (HEK293T cells) was 4.29.

`CN(Cc1ccc(C(F)(F)F)cc1)c1nsc2cnccc12` [JMM084] gave an EC50 (NPEPPS) of 4.57 µM, an IC50 (HEK293T cells) of 23.4 µM and a Therapeutic index (HEK293T cells) of 5.13.

`FC(F)(F)c1ccc(C(Nc2nsc3ccccc23)c2ccc(C(F)(F)F)cc2)cc1` [JMM051] gave an EC50 (NPEPPS) of 7.08 µM, an IC50 (HEK293T cells) of 14.1 µM and a Therapeutic index (HEK293T cells) of 2.03.

Compound `CN(Cc1ccc(OCc2ccccc2)cc1)c1nsc2ccccc12` [JMM091] has an EC50 (NPEPPS) of 145 µM, an IC50 (HEK293T cells) of 174 µM and a Therapeutic index (HEK293T cells) of 1.19.

In the case of `c1ccc(COc2ccc3snc(NCc4ccc(Cc5ccccc5)cc4)c3c2)cc1` [JMM120, N-(4-benzylbenzyl)-5-(benzyloxy)benzo[d]isothiazol-3-amine], the IC50 (HEK293T cells) is reported as 1050 µM.

For `c1ccc2c(CNc3nsc4ccccc34)nccc2c1` [JMM074], the IC50 (HEK293T cells) was 1820 µM.

Work on `c1ccc(COc2ccc3snc(NCc4ccc(N(Cc5ccccc5)Cc5ccccc5)cc4)c3c2)cc1` [JMM126, 5-(Benzyloxy)-N-(4-(dibenzylamino)benzyl)benzo[d]isothiazol-3-amine] yielded an IC50 (HEK293T cells) of 1260 µM.

In the case of `COc1ccc(CNc2ncnc3ccccc23)cc1OC` [JMM036], the IC50 (HEK293T cells) is reported as 135 µM.

For `c1ccc(COc2ccc3snc(NCc4ccc(COc5ccccc5)cc4)c3c2)cc1` [JMM124, 5-(Benzyloxy)-N-(4-(phenoxymethyl)benzyl)benzo[d]isothiazol-3-amine], the IC50 (HEK293T cells) was 724 µM.

Compound `c1ccc(COc2ccc3snc(NCc4ccc(OCc5ccccc5)c5ccccc45)c3c2)cc1` [JMM116, 5-(Benzyloxy)-N-((4-(benzyloxy)naphthalen-1-yl)methyl)benzo[d]isothiazol-3-amine] has an IC50 (HEK293T cells) of 1000 µM.

`COc1ccc(CNc2nccc3ccccc23)cc1OC` [JMM034] gave an IC50 (HEK293T cells) of 186 µM.

Compound `c1ccc(COc2ccc3snc(NC4c5ccccc5-c5ccccc54)c3c2)cc1` [JMM089] has an IC50 (HEK293T cells) of 3310 µM.

With `CC(C)C[C@H](NC(=O)[C@@H](O)[C@H](N)Cc1ccccc1)C(=O)O` [bestatin, reference compound] the “fluorescence change (NPEPPS activity)” value (NPEPPS) was “decreases in fluorescence change”.

Work on `COc1cccc(CNc2nsc3ccccc23)c1` [JMM010] yielded an IC50 (HEK293T cells) of 97.7 µM.

`Cc1cc(C)c(COc2ccc(CNc3nsc4ccc(OCc5ccccc5)cc34)cc2)c(C)c1` [JMM123, 5-(Benzyloxy)-N-(4-((2,4,6-trimethylbenzyl)oxy)benzyl)benzo[d]isothiazol-3-amine] was tested, and the IC50 (HEK293T cells) was 661 µM.

`COc1ccc(C[C@H](N)C(=O)N[C@H]2[C@@H](O)[C@H](n3cnc4c(N(C)C)ncnc43)O[C@@H]2CO)cc1` [puromycin, reference compound] was tested, and the “fluorescence change (NPEPPS activity)” value (NPEPPS) was “decreases in fluorescence change”.

For `O=C1c2ccccc2C(=O)N1c1nsc2cnccc12` [JMM085], the IC50 (HEK293T cells) was 3160 µM.
